Laboratory results taken from patent US20220370553A1, “PREBIOTIC-INDUCED ANTI-TUMOR IMMUNITY” (Sanford Burnham Prebys Medical Discovery Institute, priority 2019, published 2022).

What was measured:
Bacteroides spp. = experiment: Anaerobic fecal cultures with 1% prebiotic, 16S rDNA quantification; assay type: cell-based; details: fecal cultures of 12 healthy human subjects, 3-4 days at 37° C.
Experimental: Fecal samples derived from 12 healthy human subjects were cultivated in the presence or absence of 1% prebiotic. 16S rDNA sequences corresponding to Bifidobacterium, Bacteroides and Akkermansia muciniphila were quantified. Data are representative of three independent experiments. Graphs show the mean±s.e.m. *P<0.05, **P<0.005, ***P<0.001, ****P<0.0001 by one-way ANOVA with Tukey's correction.
Anaerobic fecal cultures. […] Anaerobic cultures (9% H2, 81% N2) were grown statically for 3-4 days at 37° C. and grown to approximate saturation.
Chemically-defined medium (CDM). CDM contains 50 mM HEPES, 2.2 mM KH2PO4, 10 mM Na2HPO4, 60 mM NaHCO3, 4 mM of each amino acid, except leucine (15 mM), 10 mL ATCC, Trace Mineral Supplement. CDM contained nucleoside bases (100 mg/L), inosine, xanthine, adenine, guanine, cytosine, thymidine and uracil (400 mg/L). CDM contained choline (100 mg/L), ascorbic acid (500 mg/L), lipoic acid (2 mg/L), hemin (1.2 mg/L) and myo-inositol (400 mg/L). Resazurin (1 mg/L) was added to visually monitor dissolved oxygen. The pH of the media was adjusted to 7.4.
Fecal samples derived from 12 healthy, vegetarian human subjects were cultivated in a chemically-defined medium the presence or absence of 1% prebiotic. Anaerobic cultures (9% H2, 81% N2) were grown statically for 3-4 days at 37° C. and grown to approximate saturation.

fecal microbiota = experiment: 16S rRNA amplicon sequencing of fecal microbiota, YUMM1.5 melanoma model; assay type: in vivo, C57BL/6 mice; details: YUMM1.5 model, TABLE 3
Experimental: (§1) Bacterial DNA extraction and 16S library preparation. […] Mouse fecal pellets were frozen on dry ice, and stored at −80° C. Bacterial DNA was extracted using the QIAmp Fast DNA Stool Mini Kit (Qiagen). To ensure efficient cell lysis, a 5-min bead-beating step using a Mini-Beadbeater-16 was included (Biospec Products, OK, USA). Library preparation for the Illumina MiSeq platform was performed by amplification of the V3-V4 region of the bacterial 16S ribosomal DNA gene using
(§2) C. Adapter and barcode sequences for dual indices were used as described by Illumina. PCR clean up steps were performed with QIAquick 96-PCR Clean up kit (Qiagen, Germany), and library quantification was performed using a KAPA Library Quantification Kit for Illumina platforms (KAPA Biosystems, MA, USA). An Experion Automated Gel Electrophoresis System (Bio-Rad, CA, USA) was used to measure the DNA concentration and purity of the pooled libraries. The 16S libraries were sequenced at Novagene (Beijing, China) and the SBP sequencing Core.
16S sequencing data processing. […] OSUs mapped to the same strains are grouped together (adding read counts) if percentage similarities are within 3%. Read counts are converted into relative abundance as described in HiMap. […]

CD8+ T cells = experiment: qRT-PCR of cytokine and chemokine mRNAs in CD8+ T cells in vitro; assay type: cell-based, mice; details: 0.05 or 0.5 mg/ml in vitro; in some conditions
Source text: (§3) Data are representative of two independent experiments. Graphs show the mean±s.e.m. *P<0.05, **P<0.005, ***P<0.001, ****P<0.0001 one-way ANOVA with Tukey's correction.
RNA extraction and qRT-PCR analyses. Total RNA was extracted from tumor samples individually using the RNeasy Fibrous Tissue Midi kit (QIAGEN) or cells treated as indicated using High Capacity Reverse Transcriptase kits (Invitrogen) according to the manufacturer's protocol. Purity and concentration of extracted RNA were checked and quantified by reading at 260 and 280 nm in a NanoDrop spectrophotometer (Thermo Fisher). The qRT-PCR analyses were performed using Syber Green RT-PCR kits (Invitrogen) on a Bio-Rad CFX Connect Real-Time system. Expression levels normalized to 18S or Tubb5 controls.

OT-I CD8+ T cells = experiment: In vivo OT-I T cell assay with B16-OVA melanoma cells; set-up: species or system C57BL/6 mice; details: mucin-treated vs control mice
Experimental: Right dot plots show gating of CD45.1+CD8+ cells (n=6). FIG. 4B Quantification of CD45.1+OT-I CD8+ T cell number in the tumor-draining lymph nodes (TdLN) and non-draining lymph nodes (ndLN) of WT C57BL/6 mice CD45.2+ mice that were injected with B16-OVA melanoma cells (n=10). Graphs show the mean s.e.m. *P<0.05, by two-tailed t-test or Mann-Whitney U test.
In vivo OT-I T cell proliferation assay. […] After 24 h, the mice were injected s.c. with 1×10^6 B16-OVA melanoma cells and the mice were left for 7 days. The spleen, tumor-draining lymph nodes, and non-draining lymph nodes were harvested and analyzed by flow cytometry. The proliferation of OT-1 CD8+ T cells was assessed by analysis of CFSE dilution within the population by gating on CD45.1+CD8+ T cells.
To assess the activation and homing of tumor-specific T cells in prebiotic-treated mice, an adoptive transfer model was used with OVA-specific OT-I transgenic T cells. OVA-specific OT-I CD8+, CD45.1+ T cells were transferred into untreated or mucin-treated WT mice. Mice were injected with OVA-expressing B16F10 tumor cells, and the frequency of OVA-specific OT-I T cells was monitoring in tumor draining and non-tumor-draining lymph nodes. OT-I CD8+ T cells were more abundant in the tumor-draining lymph nodes of mucin-treated mice, compared with control mice (FIG. 4A-B).

[1] = test system: bone marrow-derived dendritic cells (BMDCs); experiment: Activation of bone marrow-derived dendritic cells in vitro; assay type: cell-based, murine; details: 24 h, 0.05 and 0.5 mg/ml
Source text: as §3
Bone Marrow-Derived Dendritic Cells (BMDCs).

gut microbiota = assay type: in vivo, C57BL/6 mice; details: in the absence of MEKi
Experimental: as §1, §2
16S sequencing data processing. The original FASTQ files from Illumina 250 basepair paired-end sequencing of the samples were processed using a novel 16S amplicon sequencing pipeline HiMap (http://github.com/taolonglab/himap; BioRxiv 565572). The output of HiMap is Operational Strain Unit (OSU) which contains one or more bacterial strains that best match the 16S sequence and cannot be further distinguished. The percentage similarity between the 16S sequence and the aligned region of 16S rRNA genes of the strains in the OSU is indicated. OSUs mapped to the same strains are grouped together (adding read counts) if percentage similarities are within 3%. Read counts are converted into relative abundance as described in HiMap. Log 10-transformed relative abundances were used for comparisons between samples under different experimental conditions.

Q: mucin was tested. Which “relative abundance of Bacteroides spp.” value (Bacteroides spp.) did it give?
A: The value was “increased”.

Q: And the taxa enriched (fecal microbiota)?
A: The taxa enriched was “predominantly enriched taxa with similarity to members of Clostridium cluster XIVa”.

Q: What about the “expression of Granzyme B, CCL4, and CCL5 in CD8+ T cells” value (CD8+ T cells) of the same substance?
A: The value was “enhanced expression”.

Q: And the “OT-I CD8+ T cells in tumor-draining lymph nodes” value (OT-I CD8+ T cells)?
A: Its value is “more abundant”.

Q: And the “CD40, CD80, MHC I and MHC II on BMDCs” value [1]?
A: Its value is “increased”.

Q: What about the “phylotype group related to Parasutterella excrementihominis” value (gut microbiota) of the same substance?
A: Its value is “not observed”.

Q: What about the “taxa increased in relative abundance” value (gut microbiota) of the same substance?
A: The value was “primarily increased the relative abundance of taxa mapped in or near Clostridium cluster XIVa”.
